Source: patent publication US20230210834A1, “RNA METHYLTRANSFERASE INHIBITOR, SCREENING METHOD THEREFOR, ANTI-CANCER AGENT EFFICACY ASSESSMENT MARKER, AND KIT FOR EFFECTIVELY PREDICTING FTSJ1 INHIBITOR” (National University Corporation Okayama University, priority 2019, published 2023)

What was measured:
YAP/TAZ = experiment: Screening: YAP/TAZ activity reporter (8xGTIIC plasmid) assay in NUGC3 cells (luminescence % of DMSO); type: cell-based, human; conditions: NUGC3 cells; luminescence relative to DMSO; concentration not given
[1] = system: triple-negative breast cancer cell line MDA-MB-231; experiment: Anti-tumor effect evaluation test in MDA-MB-231 tumor model mice; type: in vivo, immunodeficient mice (BALB/c-nu/nu); conditions: 100 mg/kg intraperitoneally every other day in corn oil; FIG. 1 and 2
Method: A cell suspension (1×10^6 cells/100 μL), in which triple-negative breast cancer cell line MDA-MB-231 was suspended in phosphate buffer (PBS, produced by FUJIFILM Wako Pure Chemical Corporation), was inoculated subcutaneously in the dorsal lumbar region of immunodeficient mice (BALB/c-nu/nu, female, 6 weeks old, purchased from Shimizu Laboratory Supplies Co., Ltd.) using a syringe with a 23 G injection needle (Terumo Corporation). After confirming that the cancer cells engrafted under the skin of the mice to form tumor tissues, and that the tumor volume reached 100 mm^3, the obtained tumor model mice were used for the following evaluation test. First, each compound for evaluation was dissolved in corn oil (produced by Sigma-Aldrich Co., LLC) and administered intraperitoneally. PVZF0024 was administered at 100 mg/kg and PVZF2001 was administered at 20 mg/kg to the tumor model mice every other day. At each administration, the tumor diameter was measured with a caliper. The tumor volume was calculated according to the following formula: V=(3.14×D×d^2)/6 (wherein V is the tumor volume, D is the tumor major axis, and d is the tumor minor axis) (Wu. et al., Clin. Cancer Res., 2013 Oct. 15; 19(20): 5699-5710).

[2] = system: polyglutamine luciferase reporter; experiment: Screening: polyglutamine luciferase reporter assay in NUGC3 cells (luminescence % of DMSO); type: cell-based, human; conditions: NUGC3 cells; luminescence relative to DMSO; concentration not given

## Oc1ccccc1C1CC(c2ccc3c(c2)OCCO3)=NN1 (stereo not drawn) [PVZF0024]
YAP/TAZ
  8×GTIIC: 23.4%
[1]
  antitumor effect (tumor growth, tumor volume): significantly inhibit tumor growth
[2]
  Polyglutamine: 15.8%
